Data on eight molecules can be found in article PMC10499603, “Polθ is phosphorylated by PLK1 to repair double-strand breaks in mitosis” (Nature, 2023).

One series deals with Polθ foci in mitosis. Nature of the series: Polθ foci in mitosis after siRNA. In kind it is cell-based, human. The settings on record: siRNA knockdown. As to the method:
(§1) Transfection of siRNA oligonucleotides (Eurofins) was performed using Lipofectamine RNAiMax (ThermoFisher Scientific) following the manufacturer’s instructions.
(§2) Cells grown on coverslips were fixed for 15 min in 2% paraformaldehyde, permeabilized for 10 min in 0.5% Triton X-100, blocked for 30 min in BSA 5%, 0.1% Triton X-100, immunostained for 1 h with primary antibodies, 45 min with secondary antibodies (Highly Cross-Adsorbed Secondary Antibodies Alexa Fluor, ThermoFisher Scientific) and mounted Vectashield mounting medium containing DAPI (Vector Laboratories). The same protocol was applied to mitotic cells, which were collected by shake off and centrifuged onto glass slides using a cytospin centrifuge (400g, 5 min) before fixation. […] Biotin azide-EdU click-it reaction was performed after fixation and permeabilization by incubating cells with a mix of Picolyl biotin, CuSO4, THPTA (Jena Bioscience) and sodium ascorbate in PBS for 30 min in the dark followed by an incubation with streptavidin conjugated Alex fluor 647 antibody (ThermoFisher Scientific) during 1 h at room temperature. Images were taken at 60× or 100× magnification using Upright Spinning disk Confocal Microscope (Roper/Zeiss) or at 40× magnification using DeltaVision (Deconvolution) Image Restoration Microscope. […] Images were analysed using the Fiji software. […]

A further series has as its system Polθ foci in interphase. As to the kind of experiment: Polθ foci in interphase after siRNA. Type of series: cell-based, human. The settings on record: siRNA knockdown. How it is done:
as §1, §2

Series [1] concerns Polθ foci formation in RPE-1 cells expressing GFP–Polθ. As to the kind of experiment: siRNA screen for ionizing radiation-induced Polθ foci formation. Type of series: cell-based, human. The settings on record: 10 nM siRNA, 72 h, then 5 Gy, 2 h; cells with at least 5 Polθ foci; median RZ score of the three siRNAs, three replicate experiments. The source says:
The Human DDR siRNA library comprising 1,746 single siRNAs representing 582 human genes (3 siRNAs per gene) was obtained from ThermoFisher Scientific (A30089). For controls, siRNAs targeting GL2, kinesin family member 11 (KIF11) and GM130 were used to assess transfection efficacy and induced cell toxicity. FANCD2 siRNA ([…]dT, defined as FANCD2-ctrl in Supplementary Table 1) was used as a positive control inhibiting Polθ foci formation. RPE-1 cells expressing GFP–Polθ (250 cells per well in 384-well plates) were grown overnight. siRNAs were incubated 15 min with 0.05 μl Interferin reagent (Polyplus transfection) and Opti-MEM (ThermoFisher Scientific) prior to being transferred into each 384-well plate wells, to obtain a 10 nM final concentration. Cells were irradiated 72 h after transfection, at a dose of 5 Gy (226 s) with the CIXD irradiator (RadeXp platform, Institut Curie) and incubated at 37 °C, 5% CO2 for 2 h. […] Polθ was then identified as organelles in the nuclei area and quantified by the average intensity of pixels within the defined organelles region. […] Corrected values were normalized as follows: sample median and median absolute deviation (MAD) were calculated from the Interferin-treated population of each internal plate data points (named as Ref pop) and used to compute robust Z-scores[59] […]

In series [2] the test system is PLK1. As to the kind of experiment: In vitro kinase assay of Polθ immunoprecipitates with recombinant PLK1. Type of series: biochemical. The settings on record: GFP–Polθ immunoprecipitate, recombinant PLK1 50, 100 or 500 ng, 5 μM ATP, [γ-32P]ATP, 30 min, 30 °C, autoradiography. How it is done: Immunoprecipitates of GFP–Polθ (2 h GFP trap at 4 °C, followed by 2 washes with 150 mM NaCl buffer and 1 wash with 300 mM NaCl) or 1.2 μg of RBER-CDC25tide (Reaction Biology, 0590-0000-1) were resuspended in 30 μl kinase buffer (Cell Signaling, 9802) containing 50, 100 or 500 ng of recombinant PLK1 (Reaction Biology, 0183-0000-1) and 5 μM ATP and 5 μCi [γ-^32P]ATP. After incubation for 30 min at 30 °C, reactions were stopped on ice by the addition of 2× Laemmli buffer and boiling for 5 min at 95 °C. Samples were separated on a 4–8% Tris-acetate gel (or 10% SDS–PAGE for the CDC25 positive control), and phosphorylated ^32P-Polθ and CDC25 were detected by autoradiography.

For series [3], the system named is PLK1. As to the kind of experiment: Real-time NMR phosphorylation of Polθ fragments by PLK1. Type of series: biochemical. The settings on record: SOFAST HMQC series, 298 K, 8 h, PLK1 1:200. How it is done:
(§3) The NMR experiments were performed on the Polθ protein fragments (E1424–Q1503) and (E1540–S1660), either ^15N- or ^15N,^13C-labelled, and dissolved in the NMR buffer (with in addition 7% v/v D2O and EDTA-free Protease Inhibitor Cocktail 1× (Roche)). Most experiments were recorded on a 700 MHz Bruker ADVANCE NEO spectrometer equipped with a triple resonance cryogenically cooled probe. ^1HN, ^13Cα, ^13Cβ, ^13CO and ^15N resonance frequencies of the non-phosphorylated fragments were assigned at 283 K using 2D ^1H–^15N SOFAST HMQC, 3D HNCA, 3D HNCACB, 3D CBCA(CO)NH, 3D HNCO, 3D HN(CA)CO and 3D HN(CA)NNH experiments. All 3D experiments were recorded using non uniform sampling (NUS: 40–50%). To monitor phosphorylation by PLK1, either ^15N- or ^15N,^13C-labelled Polθ protein fragments were mixed with PLK1, and a series of 16 2D NMR ^1H-^15N SOFAST HMQC experiments were recorded at 298 K during 8 h, each experiment being a 1,536 × 160 dataset acquired with 80 scans during 30 min[50]. The temperature was then set to 283 K and 2D ^1H–^15N SOFAST HMQC, 3D HNCA, 3D HNCACB, 3D CBCA(CO)NH and 3D HN(CA)NNH experiments were recorded, in order to assign the resonance frequencies of the phosphorylated fragments (here again with NUS at 40–50%). […]

A further series concerns TOPBP1. The settings on record: peptide on streptavidin beads, HeLa nuclear extract 350 μg, 2 h room temperature, immunoblot. (In western blotting, separated proteins are transferred to a membrane and probed.)
The target in series [4] is T1, TOPBP1 BRCT7-8 domain, TOPBP1 fragment (1264–1493) (UniProt Q92547 1264-1493).
T1 construct: source: bacteria protein extracts named for the peptide pull-down
T1 sequence (Q92547 1264-1493): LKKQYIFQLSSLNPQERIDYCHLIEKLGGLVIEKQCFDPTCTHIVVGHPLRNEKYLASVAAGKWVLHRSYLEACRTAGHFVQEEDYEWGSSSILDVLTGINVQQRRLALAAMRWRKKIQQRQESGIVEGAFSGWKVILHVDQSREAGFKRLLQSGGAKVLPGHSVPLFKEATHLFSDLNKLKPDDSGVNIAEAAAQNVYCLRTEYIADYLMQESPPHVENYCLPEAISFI
Nature of the series: NMR titration; 2D 1H-15N spectra of 15N-labelled Polθ (E1424-Q1503), phosphorylated or not, without and with TOPBP1 BRCT7-8 at a 1:0.5 ratio; 25 mM HEPES, 50 mM NaCl, pH 7. The settings on record: both partners purified.

A further series concerns the target T2, TOPBP1 BRCT7-8 (Homo sapiens, UniProt Q92547).
T2 construct: GST (N); TEV cleavage site; made in house; host or cells: E. coli BL21 (DE3) Star
Nature of the series: 2D NMR of 15N-labelled Polθ fragment with TOPBP1 BRCT7-8. Type of series: binding. The settings on record: 2D 1H–15N, Polθ fragment:BRCT7-8 1:0.5, 25 mM HEPES, 50 mM NaCl, pH 7. As to the method: as §3

T2 sequence (Q92547 1264-1493): as above

For the molecule “ACAAAUACAUGGCUGGUUAdTdT (guide ACAAAUACAUGGCUGGUUATT; chemistry not fully specified) [TOPBP1, siRNA targeting TOPBP1]”, the “Polθ foci formation in mitosis” value in the series on Polθ foci in mitosis is “suppressed Polθ foci (and filament) formation only in mitosis”.

As to “GUCUCCCAGAAGACAGUGAdTdT (sense GUCUCCCAGAAGACAGUGATT; chemistry not fully specified) [MDC1, siRNA targeting MDC1]”, in the series with Polθ foci in mitosis, the “Polθ foci formation in mitosis” value is “prevented the formation of Polθ foci in both interphase and mitosis”. Moreover, the “Polθ foci formation in interphase” value with Polθ foci in interphase is “prevented the formation of Polθ foci in both interphase and mitosis”. Moreover, the “Robust z score_corrected_Cells multi-foci_MultiFoci (%)” value in series [1] is reported as -2.42.

Turning to Polθ: DNA polymerase theta, the “phosphorylation of Polθ by PLK1” value in the series on PLK1 [2] is given as “direct phosphorylation of Polθ by PLK1”. Further, the “kinetics of Polθ phosphorylation by PLK1” value with PLK1 [3] is “fast kinetics of Polθ phosphorylation”.

As for “biotin-GSGTRQNHpSFIWSGApSFDLSPGLQRILDKVSS [1628-P/S1635-P]”, in the series on TOPBP1, the “interaction with TOPBP1” value was “did not interact with TOPBP1”.

B1: phosphorylated recombinant Polθ fragment (E1424–Q1503) (domain or fragment, human, UniProt O75417 1424-1503, looked up)
chain: EENGLFLKKNEVSVTDSQLNSFLQGYQTQETVKPVILLIPQKRTPTGVEGECLPVPETSLNMSDSLLFDSFSDDYLVKEQ
modifications: 15N-labelled; phosphorylated by PLK1, sites include S1482, S1486, S1488 and S1493
notes: DNA polymerase theta (Polθ), human, residues E1424-Q1503; also called phosphorylated Polθ E1424–Q1503 fragment; Polθ protein fragment F1 (phosphorylated); source: E. coli BL21 (DE3) Star, purified (HisTrap, TEV cleavage, reverse HisTrap), then phosphorylated with PLK1; not shown: GB1, C-terminal, cleaved; His6, C-terminal, cleaved
Take B1: the binding result in series [4] is “binds”.

B2: non-phosphorylated recombinant Polθ fragment (E1424–Q1503) (domain or fragment, human, UniProt O75417 1424-1503, looked up)
chain: EENGLFLKKNEVSVTDSQLNSFLQGYQTQETVKPVILLIPQKRTPTGVEGECLPVPETSLNMSDSLLFDSFSDDYLVKEQ
modifications: 15N-labelled
notes: DNA polymerase theta (Polθ), human, residues E1424-Q1503; also called non-phosphorylated Polθ fragment from Glu1424 to Gln1503; Polθ protein fragment F1; source: E. coli BL21 (DE3) Star, purified (HisTrap, TEV cleavage, reverse HisTrap); not shown: GB1, C-terminal, cleaved; His6, C-terminal, cleaved
Consider B2, for which the binding result in series [4] is given as “binds”.

B3: non-phosphorylated recombinant Polθ (E1424–Q1503): recombinant Polθ fragment E1424–Q1503 from E. coli (protein, UniProt O75417 1424-1503, looked up, fragment)
chain: EENGLFLKKNEVSVTDSQLNSFLQGYQTQETVKPVILLIPQKRTPTGVEGECLPVPETSLNMSDSLLFDSFSDDYLVKEQ
With B3, the “NMR signals lost upon addition of TOPBP1 BRCT7-8” value with TOPBP1 BRCT7-8 is given as “only a few NMR peaks were lost upon addition of TOPBP1 BRCT7-8”.

B4: phosphorylated recombinant Polθ fragment (E1424–Q1503): recombinant Polθ fragment E1424–Q1503 phosphorylated by PLK1 (protein)
chain: EENGLFLKKNEVSVTDSQLNSFLQGYQTQETVKPVILLIPQKRTPTGVEGECLPVPETSLNMSDSLLFDSFSDDYLVKEQ
modifications: 15N-labelled; phosphorylated by PLK1, sites include S1482, S1486, S1488 and S1493; left off: GB1, C-terminal, cleaved | His6, C-terminal, cleaved
In the case of B4, the “NMR signals lost upon addition of TOPBP1 BRCT7-8” value with TOPBP1 BRCT7-8 is listed as “NMR signals corresponding to the Polθ region (p-S1482–L1499) were lost upon addition of BRCT7-8”.
